Patent US8501446B2 (Vertex Pharmaceuticals Incorporated, priority 2004, dated 2013)

Experiments:
[1] = target: T1, JAK3 (Homo sapiens, UniProt P52333); test: JAK3 inhibition assay (standard radioactive enzyme assay); assay type: biochemical; details: average Ki if more than one value determined
T1 sequence (P52333 1-1124): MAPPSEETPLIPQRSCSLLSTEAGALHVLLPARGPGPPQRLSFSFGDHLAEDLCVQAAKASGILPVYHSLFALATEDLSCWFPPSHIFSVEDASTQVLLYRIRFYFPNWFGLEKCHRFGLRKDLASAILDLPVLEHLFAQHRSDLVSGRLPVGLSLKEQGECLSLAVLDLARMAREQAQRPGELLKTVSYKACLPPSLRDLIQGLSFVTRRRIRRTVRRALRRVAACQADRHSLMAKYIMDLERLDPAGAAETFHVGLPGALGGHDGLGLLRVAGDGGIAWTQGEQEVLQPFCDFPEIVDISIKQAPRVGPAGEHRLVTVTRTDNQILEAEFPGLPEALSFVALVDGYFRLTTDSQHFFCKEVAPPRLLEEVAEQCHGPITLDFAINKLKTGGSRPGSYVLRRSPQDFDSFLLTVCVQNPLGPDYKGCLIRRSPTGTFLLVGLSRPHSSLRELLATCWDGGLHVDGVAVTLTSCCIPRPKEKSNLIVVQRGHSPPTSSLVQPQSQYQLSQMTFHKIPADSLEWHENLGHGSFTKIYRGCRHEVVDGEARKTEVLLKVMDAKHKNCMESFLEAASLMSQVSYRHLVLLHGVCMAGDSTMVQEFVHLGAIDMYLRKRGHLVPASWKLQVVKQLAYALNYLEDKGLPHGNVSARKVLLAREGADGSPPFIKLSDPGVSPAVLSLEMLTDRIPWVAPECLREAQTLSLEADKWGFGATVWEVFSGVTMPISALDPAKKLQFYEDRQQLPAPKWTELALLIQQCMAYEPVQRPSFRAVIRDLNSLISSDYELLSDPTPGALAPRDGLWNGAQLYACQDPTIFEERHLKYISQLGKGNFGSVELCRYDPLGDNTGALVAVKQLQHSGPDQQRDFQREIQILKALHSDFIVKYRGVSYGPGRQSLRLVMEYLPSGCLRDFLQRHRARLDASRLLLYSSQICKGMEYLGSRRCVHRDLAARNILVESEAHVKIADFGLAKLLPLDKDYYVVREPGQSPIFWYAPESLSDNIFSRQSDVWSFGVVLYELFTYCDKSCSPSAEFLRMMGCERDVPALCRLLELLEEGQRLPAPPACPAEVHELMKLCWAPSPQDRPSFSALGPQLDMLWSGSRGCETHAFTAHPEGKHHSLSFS

[2] = target: T2, full length Aurora-A (AA 1-403) (Homo sapiens, UniProt O14965); test: Aurora-A inhibition assay, standard coupled enzyme system; assay type: biochemical; details: average Ki if more than one value determined
T2 construct: full length Aurora-A (AA 1-403)
T2 sequence (O14965 1-403): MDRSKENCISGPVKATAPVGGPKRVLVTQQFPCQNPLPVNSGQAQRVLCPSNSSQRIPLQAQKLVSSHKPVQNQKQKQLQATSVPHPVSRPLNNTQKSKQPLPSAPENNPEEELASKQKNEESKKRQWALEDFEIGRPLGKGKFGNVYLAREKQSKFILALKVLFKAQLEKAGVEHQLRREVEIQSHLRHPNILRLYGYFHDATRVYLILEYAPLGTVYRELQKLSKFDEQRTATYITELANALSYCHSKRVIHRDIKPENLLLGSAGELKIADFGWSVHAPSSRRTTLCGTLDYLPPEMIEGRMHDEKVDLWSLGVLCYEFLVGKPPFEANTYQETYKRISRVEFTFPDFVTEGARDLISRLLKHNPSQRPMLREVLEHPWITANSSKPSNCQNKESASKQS

| Ki [1] [nM] | Ki [2] [nM] | Structure (SMILES) |
| --- | --- | --- |
| < 500 | 500 to 5000 | COc1cnc2[nH]cc(-c3cccc(N4C[C@@H](C)N(C(C)=O)[C@@H](C)C4)n3)c2c1 [Compound 18] |
| < 500 | < 500 | CC(=O)N1[C@H](C)CN(c2cccc(-c3c[nH]c4ncc(Cl)cc34)n2)C[C@@H]1C [Compound 19] |
| < 500 | < 500 | CCOC(=O)N1CCCN(c2nccc(-c3c[nH]c4ncc(OC)cc34)n2)CC1 [Compound 33] |
| < 500 | < 500 | COC(=O)c1cnc2[nH]cc(-c3cccc(N4C[C@@H](C)N(C(C)=O)[C@@H](C)C4)n3)c2c1 [Compound 35] |
| < 500 | < 500 | C[C@H](Nc1nc(-c2c[nH]c3ncc(Cl)cc23)ncc1F)C(=O)NCC(F)(F)F [Compound 369] |
| < 500 | < 500 | C[C@H](Nc1cccc(-c2c[nH]c3ncc(Cl)cc23)n1)c1ccc(F)cc1 [Compound 395] |
